This is an account of results in patent US20230201341A1, “TLR3 AND TLR9 AGONISTS AS VACCINE ADJUVANTS FOR ANTI-CANCER DNA VACCINES” (WISCONSIN ALUMNI RESEARCH FOUNDATION, priority 2021, published 2023).

The assay has as its system TRAMP-C1 tumor cells. Description: Tumor study with TRAMP-C1 tumors: DNA vaccine pTVG-AR co-delivered with TLR agonists. The class given is in vivo, C57BL/6 mice. To be noted: administered with a DNA cancer vaccine in mice; compared with vaccine alone. The text has this:
FIG. 6. Combinations of TLR agonists improve the anti-tumor efficacy of a DNA vaccine in a prostate cancer tumor model. C57BL/6 mice were implanted subcutaneously with TRAMP-C1 tumor cells. Mice were immunized intradermally weekly with control vector (pTVG4) or DNA encoding AR ligand-binding domain (pTVG-AR) and delivered alone or co-delivered with TLR1/2, TLR3 and/or TLR9 agonists. (A) shown are the growth curves for each group (n=6 animals per group). (B) Survival plots using the time to death or when tumors reached 2 cm3 in size, whichever occurred first. (C) Tumors obtained at necropsy were evaluated for the percentage of infiltrating CD45^+ cells, CD8^+ T cells among CD45^+ cells, and Treg cells (CD25^+Foxp3^+) among CD4^+CD45^+ cells. (D) Tumor-infiltrating CD8+ T cells were evaluated for 4-1BB and PD-1 expression by flow cytometry.
FIG. 11. Combinations of TLR agonists improve the anti-tumor efficacy of a DNA vaccine in a prostate cancer tumor model. […]
Six- to ten-week-old male C57BL/6 mice were inoculated with 1×10^6 TRAMP-C1 cells, administered subcutaneously with matrigel. […] TLR agonist(s) were co-administered with the vaccine intradermally, and tumor volumes were measured as described above. Obtained tumors were digested in collagenase and DNAse I for 1 hour at 37° C., passed through a […] screen, and analyzed by flow cytometry.

Regarding ODN 1826, the tumor growth suppression result was “improved the tumor growth suppression”.
